From patent US20110008302A1, “Compositions and methods for immortalizing cells and screening for anti-cancer agents” (priority 2007, published 2011)

Tests used:
MEFs [1] = experiment: Stimulation of serum-starved MEFs with growth factors or serum (Ezh2, Ndy1, miR-101 levels); format: cell-based, mouse
Experimental: MEFs were transfected with control siRNA and stimulated with serum (10%) for 1, 4, 12 and 18 hours. (upper) Nuclear extracts were probed with antibody specific for Ezh2 and for CREB, levels of which served as loading control. (lower) Ndy1 and Ezh2 mRNA levels were measured with real time RT-PCR; GAPDH mRNA levels were used as internal control. Data are expressed as mean±SD.
Serum starved MEFs were stimulated with each of FGF-2 (20 ng/ml), IGF-1 (20 ng/ml), PDGF (20 ng/ml), serum (10%), VEGF (20 ng/ml), EGF (20 ng/ml) or TNFα (50 ng/ml). Nuclear extracts were probed with antibody specific for Ezh2 and for CREB, levels of which served as loading control.
Data are expressed as mean±SD.
MEFs transfected with control siRNA were stimulated with FGF-2 for 1, 4, 12 or 18 hours. (upper) Nuclear extracts were probed with antibody specific for Ezh2. CREB levels served as loading control. (middle) Ndy1 and Ezh2 mRNA were measured with real time RT-PCR; GAPDH mRNA levels were used as internal control. Data are expressed as mean±SD. (lower) miR-101 levels were measured with real time RT-PCR; U6 small nuclear RNA levels were used as internal control. Data are expressed as mean±SD.
For stimulation with FGF-2 (Cell signalling, catalog number 8910), IGF-1 (R&D Systems, catalog number 791-MG), PDGF (Cell signalling, catalog number 9909), VEGF (R&D systems, catalog number 493-MV), EGF (R&D systems, catalog number 236-EG), TNFα (Cell Signalling, catalog number 2169), cells were serum starved for 16 hours and growth factors were added at a final concentration of 20 ng/ml each, for 24 hours.
To identify a pathway regulating Ezh2 expression via the Ndy1/miR-101 axis, serum-starved MEFs were stimulated with FGF-2, IGF-1, PDGF, EGF, VEGF, TNFα or serum and were examined for expression of Ezh2, Ndy1 and miR-101 before and 24 hours after stimulation. […] This was confirmed with analyses in which FGF-2 was used to stimulate serum-starved MEFs transfected with a control siRNA or siRNA for Ndy1 (FIG. 36).

MEFs [2] = experiment: FGF-2-induced proliferation and migration of MEFs (MTT, transwell filter, wound healing); format: cell-based, mouse
Description: FGF-2 stimulation induces both proliferation and migration in various cell types. To determine the role of Ndy1 in FGF-2-driven proliferation and migration, FGF-2 was used to stimulate serum-starved MEFs which were transfected with control RNA, siRNA for Ndy1, miR-101 or with siRNA for Ndy1+miR-101.
To determine cell number, the 3-[4,5-dimethylthiazol-2-yl]-2,5-[…] bromide (MTT, Invitrogen, catalog number M6494) assay was used as described in Polytarchou, C et al., 2005 J. Biol. Chem. 280: 40428-35. Cells were seeded at 2×10^4 cells/well in 24-well tissue culture plates. Twenty-four hours later, cells were serum-starved in medium without FBS for 16 h. Culture medium was replaced with fresh medium containing FGF-2 or control carrier, and the number of cells was determined. Results were confirmed by direct counting of cells under the microscope, using a standard hemocytometer.
Migration assays were performed using 24-well microchemotaxis chambers (Costar) with uncoated polycarbonate membranes (pore size 8 μm). Briefly, cells were harvested and resuspended at 5×10^4 cells/0.15 ml in DMEM containing 0.25% BSA. The bottom chamber of each transwell unit contained 0.6 ml of DMEM supplemented with 0.25% BSA and FGF-2 (20 ng/ml) or carrier as a control. The plates were incubated for 6 h at 37° C. and the filters were fixed with 4% paraformaldehyde in PBS and stained with 0.1% crystal violet solution. The cells that migrated through the filter were counted using a grid and an Optech microscope at 20× magnification.
To assay wound healing, cells were plated on 6-well plates, incubated in DMEM containing 10% FBS until confluence and were serum starved for 16 hours. Wounds were introduced to the confluent cell monolayer with a plastic pipette tip. Wells were washed three times to remove floating cells, and were cultured in DMEM without FBS, in the presence or absence of FGF-2 (20 ng/ml). Twelve and twenty four hours later, the wound area was photographed using a Nikon Phase Contrast-2 ELWD 0.3 Diaphot TMD inverted microscope with a 10× objective and a Spot charge-coupled-device camera (Diagnostic Instruments).

[3] = system: Human Umbilical cord Vein Endothelial Cells; experiment: In vitro tube formation assay; format: cell-based; settings: HUVECs, FGF-2 20 ng/ml, 6 h
Experimental: HUVECs were transduced with a myc.Ezh2 expression construct, or with the empty vector (EV) and were subsequently transduced with either shRNA for Ndy1 or with a lentiviral-based control shRNA. (upper-first row) Tube formation on Cultrex-RGF-BME without FGF-2. (upper-second row) Tube formation on Cultrex-RGF-BME in the presence of 20 ng/ml FGF-2. (upper-third row) Tube formation on reduced-growth factor-Matrigel in the presence of 5 μM of the angiogenesis inhibitor sulphoraphane. (lower) Quantitation of tube formation was performed with the Angioquant software. Relative tube formation was calculated as the ratio of total capillary tube length in cells with or without FGF-2 normalized to total capillary tube length of EV cells without FGF-2 and set to 1 for total capillary tube length of EV cells without FGF-2. Data are expressed as mean±SD.
HUVECs were then transduced with a pBabe-based retrovirus construct of myc-Ezh2. Cells transduced with the empty pBabe vector (EV) were used as a negative control. […]
The in vitro tube formation assay was performed using the In Vitro Angiogenesis Assay Kit (Trevigen, catalog number 3470-096-K). […] After 6 h of incubation at 37° C., the medium was removed, the cells were fixed and stained with Calcein AM, and the total length of capillary tubes was measured in the total area of the wells using image analysis software (Angioquant). […]

Ndy1 = experiment: siRNA knock down in MEFs (Western blot, real time PCR of p16Ink4a, p19Arf, Ezh2, miR-101); format: cell-based, mouse
Experimental: At a time point four days after transfection cells were analyzed by Western blotting and total mRNA was collected and analyzed by real-time PCR with primers specific for p16^Ink4a and p19^Arf and primers specific for the long and short forms of Ndy1. (n=3)*p<0.05
(§1) MEFs overexpressing Ndy1 or Ndy2 and MEFs in which Ndy1 was knocked down with siRNA (1433-[…]-1454, SEQ ID NO: 1), were monitored for senescence by light microscopy and β-galactosidase staining and by cell counting at each passage. Transfection of siRNA was carried out using Lipofectamine 2000 (Invitrogen; Carlsbad, Calif.). Knockdown of Ndy1 was confirmed by Western blotting and real time RTPCR.
For siRNA. MEFs transfected with Ndy1 (1433-[…]-1454; SEQ ID NO: 51) or control siRNA (Dharmacon) were plated at 10^5 cells per 6 cm dish and 3-4 days later were harvested and analyzed (Pfau, R., et al. (2008) Proc Natl Acad Sci USA 105, 1907-12, incorporated herein by reference in its entirety). MEFs were transfected with the help of Lipofectamine 2000 (Invitrogen). To specifically knock down the short form of Ndy1 the following siRNA were used: 5′-[…]-′3 (SEQ ID NO: 52) which specifically targets the exon1 of the v2 isoform of Ndy1 (NM_013910). siRNAs for Ezh2 (a mix of two siRNAs form Applied Biosystems, #AM16708 siID #157427 and #157426) and Bmi-1 (Santa Cruz Biotechnologies, # sc-29815) were used in a final concentration of 80 nM.

MEFs [4] = experiment: Senescence of MEFs after Ndy1 siRNA (cell counting, β-galactosidase staining); format: cell-based, mouse
Experimental: as §1
MEFs transfected with Ndy1 (1433-[…]-1454) or control siRNA (Dharmacon; Chicago, Ill.) were plated in triplicate at 10^5 cells per well in 6 well dishes, and three days later they were counted, re-transfected and replated at 10^5 cells per well. At day 6, cells were photographed, counted and stained for the β-galactosidase (Pierce #9860; Rockford, Ill.). β-galactosidase staining of the cells infected with the retroviral constructs and the siRNA-treated cells was performed using X-gal and a β-galactosidase staining kit (Pierce #9860).
To determine whether endogenous Ndy1 is a physiological regulator of senescence, passage 3 wild type MEFs and passage-8 MEFs overexpressing Ndy1 were transfected with Ndy1 or control siRNA. […] The transfected cells were passaged twice, and cell proliferation was monitored by counting the cells at each passage. Cell morphology and β-galactosidase staining were recorded after the second passage (FIG. 10 panel B, FIG. 10 panel C and FIG. 10 panel D). […]

[5] = system: TCCSUP, WIDR, SKOV3, T24, NCI522; experiment: Ndy1 siRNA in cancer cell lines expressing high levels of FGF-2; format: cell-based, human; settings: five of eight high FGF-2 cell lines, 48 hours after transfection
Experimental: RNAs were transfected with Lipofectamine 2000 (Invitrogen, catalog number 11668-027) in MEFs and DharmaFect 3 (Dharmacon, catalog number T-2003-03) in cancer cell lines, according to the manufacturers' instructions (80 nM final concentration).
These eight high FGF-2 expressing cell lines were then transfected with siRNA for Ndy1 or a control siRNA. Nuclear extracts of these cells, collected 48 hours after the transfection, were probed with antibodies specific for each of Ndy1, Ezh2 and CREB. RNA isolated from these cells was analyzed by real time RT-PCR for abundance of microRNA miR-101. […] The five cell lines were obtained from patients having each of transitional cell carcinoma, lung cancer, colon cancer, ovarian cancer, and bladder cancer.

[6] = MEFs transfected with control siRNA, FGF-2 for 1, 4, 12 or 18 hours
[7] = serum-starved MEFs, 24 hours after stimulation
[8] = serum-starved MEFs transfected with control RNA
[9] = MEFs cultured under standard conditions

**Q.** Which results are given for “FGF-2: Fibroblast growth factor-2 (FGF-2) or basic fibroblast growth factor”?
**A.** Ezh2 (MEFs [1]; [6]): upregulates; Ndy1 (MEFs [1]; [6]): upregulates; miR-101 (MEFs [1]; [6]): down-regulates; expression of Ndy1 (MEFs [1]; [7]): promoted; level at which Ezh2 expression is induced (MEFs [1]; [7]): primarily at the protein level; miR-101 (MEFs [1]; [7]): downregulating; Ezh2 expression (MEFs [1]; serum-starved MEFs, 24 hours after stimulation, 20 ng/ml (serum 10%)): significantly upregulated; directional and random migration (MEFs [2]; [8]): increase; proliferation rate (MEFs [2]; [8]): increase; total length of the capillary tubes formed [3]: increase

**Q.** With “1433-GUGGACUCACCUUACCGAAUU-1454 [Ndy1 siRNA]” as the substance, how does the “serum-stimulated Ezh2 upregulation” value (MEFs [1]; MEFs transfected with siRNA for Ndy1, serum stimulation) read?
**A.** Its value is “not affected”.

**Q.** What about the FGF-2 driven proliferation (MEFs [2]; MEFs overexpressing myc.Ezh2) of the same substance?
**A.** Its FGF-2 driven proliferation is “no effect”.

**Q.** And the “directional and random FGF-2 driven cell motility” value (MEFs [2]; MEFs overexpressing myc.Ezh2)?
**A.** The value was “remained unaffected”.

**Q.** And the “FGF-2-induced Ezh2 upregulation” value (MEFs [2]; MEFs, 48 hour time point under FGF-2)?
**A.** The value was “sufficient to block”.

**Q.** And the “FGF-2 effect on proliferation and migration” value (MEFs [2]; serum-starved MEFs stimulated with FGF-2)?
**A.** The value was “greatly limited”.

**Q.** And the “expression of Ezh2” value (Ndy1; [9])?
**A.** Its value is “down-regulates, slightly”.

**Q.** And the “expression of miR-101” value (Ndy1; [9])?
**A.** The value was “does not affect”.

**Q.** What about the “p16Ink4a (Western blot)” value (Ndy1; passage 2 MEFs, transient knock down, 4 days) of the same substance?
**A.** The value was “relatively slight upregulation”.

**Q.** What about the “increase of expression of p16Ink4a” value (Ndy1; passage 3 MEFs, four days after transfection) of the same substance?
**A.** Its value is “about 2.3 times”.

**Q.** What about the “expression of Ezh2” value (Ndy1; passage 3 MEFs, four days after transfection (FIG. 17 panel B)) of the same substance?
**A.** Its value is “decreases”.

**Q.** What about the “endogenous and exogenous Ndy1 (Western blotting)” value (Ndy1; passage 3 wild type MEFs and passage-8 MEFs overexpressing Ndy1) of the same substance?
**A.** The value was “downregulation”.

**Q.** And the senescence (MEFs [4])?
**A.** The senescence was “promote senescence”.

**Q.** And the Ezh2 [5]?
**A.** Its Ezh2 is “downregulated”.

**Q.** And the “expression of miR-101” value [5]?
**A.** Its value is “upregulating”.
